The results in this text go back to patent publication US10316371B2, “Screening methods for identifying specific Staphylococcus aureus inhibitors” (TRANA DISCOVERY, INC., priority 2011, dated 2019).

The test system of one data set is K. pneumoniae UMM. The experiment in a line: MIC. It is filed as cell-based. As to conditions: Klebsiella pneumoniae; K. pneumoniae UMM; read-out: MIC.
The nature of data set [1]: Mammalian Cell Toxicity. It is filed as cell-based. As to conditions: mouse, 3T3 cells.
In a further data set the test system is E. faecium 134529. In words: MIC. Type of data set: cell-based. As to conditions: Enterococcus faecium; E. faecium 134529; read-out: MIC. Here is the method: (§1) The compounds were re-tested against other bacteria, including Staphylococcus epidermidis (ATCC 35984), Staphylococcus epidermidis (MRSE), E. faecium 134529, E. faecium 145494, […], E. faecium 161651, S. pneumoniae 49619, and S. pneumoniae 149389.
(§2) A series of compounds were evaluated for their activity against drug resistant S. aureus, including MSSA and MRSA strains.

A further data set deals with S. pneumoniae 49619. In words: MIC. Type of data set: cell-based. As to conditions: Streptococcus pneumoniae; S. pneumoniae 49619; read-out: MIC. Here is the method: as §1, §2
In the next data set the test system is S. pneumoniae 149389. The experiment in a line: MIC. It is filed as cell-based. As to conditions: Streptococcus pneumoniae; S. pneumoniae 149389; read-out: MIC. Here is the method:
as §1, §2

The subject of the next data set is E. faecalis 161651. The experiment in a line: MIC. It is filed as cell-based. As to conditions: Enterococcus faecalis; E. faecalis 161651; read-out: MIC. Here is the method: as §1, §2
A further data set has as its system E. faecalis 29212. The experiment in a line: MIC. It is filed as cell-based. As to conditions: Enterococcus faecalis; E. faecalis 29212; read-out: MIC. Here is the method:
as §1, §2

For the next data set, the system named is S. epidermidis MRSE 01. The experiment in a line: MIC. Type of data set: cell-based. As to conditions: Staphylococcus epidermidis; S. epidermidis MRSE 01; read-out: MIC. Here is the method: as §1, §2
Data set [2] has as its system S. aureus specific Arg ASL (anticodon stem loop) RNA oligomer interaction with programmed ribosomes. The experiment in a line: Fluorescence polarization assay of Arg ASL / programmed ribosome complex (HTS and dose response). It is filed as binding, S. aureus Arg ASL; E. coli 70S ribosomes. As to conditions: 6 pt dose response, fluorescence polarization after 4 hours at 25° C., corrected for auto-fluorescence; read-out: IC50.

A short description of data set [3]: Mammalian Cell Toxicity. As to conditions: human, MRC5 cells. Type of data set: cell-based.
In data set [4] the test system is non-S. aureus bacterial strains (Staph epi, E. faecium, E. faecalis, S. pneumoniae). In words: Re-test against other bacteria. Type of data set: cell-based. As to conditions: Gm (+) organisms (e.g. Staph epi, E. faecium and E. faecalis).
Description: as §1
In some cases, the compounds were as active, or nearly so, against the non-S. aureus bacterial strains. While not wishing to be bound to a particular theory, it is believed that these compounds function by stabilizing or inhibiting the complex between the mRNA Shine-Dalgarno sequence, and the anti-Shine Delgarno sequence in the ribosome, and inhibit protein translation in this manner, rather than by inhibiting the ASL Arg, and the codon encoding arginine (AGA), which is specific to S. aureus.

Values after ≈ are worked out from the molar mass of the structure shown.

In the case of `Cc1ccc2nc(-c3ccc(NC(=O)CN4CCN(CCO)CC4)cc3)sc2c1` [Compound #169, 2-[4-(2-hydroxyethyl)-1-piperazinyl]-N-[4-(6-methyl-1,3-benzothiazol-2-yl)phenyl]acetamide], the MIC is greater than 128 µg/mL in the data set on K. pneumoniae UMM; 16 µg/mL (≈ 39 µM) in the data set on E. faecium 134529; 64 µg/mL (≈ 156 µM) in the data set with S. pneumoniae 49619; 128 µg/mL (≈ 312 µM) with S. pneumoniae 149389; 16 µg/mL (≈ 39 µM) in the data set on E. faecalis 161651; 64 µg/mL (≈ 156 µM) in the data set on E. faecalis 29212. Moreover, in the data set on S. epidermidis MRSE 01, the MIC amounted to 16 µg/mL (≈ 39 µM). The CC50 in the data set “Mammalian Cell Toxicity [1]” and in the data set “Mammalian Cell Toxicity [3]” was less than 2 µg/mL in each case. In addition, in data set [2], the IC50 stood at 69.3 µM. In addition, the spectrum of activity result in data set [4] is reported as “broad spectrum for Gm (+) organisms”.

Turning to `Brc1ccc(-c2nc(N3CCNCC3)c3ccccc3n2)cc1` [Compound #880, 2-(4-bromophenyl)-4-(1-piperazinyl)-quinazoline], the MIC with K. pneumoniae UMM was greater than 128 µg/mL; in the data set on E. faecium 134529, 8 µg/mL (≈ 21.7 µM); with S. pneumoniae 49619, 32 µg/mL (≈ 86.7 µM); in the data set with S. pneumoniae 149389, 32 µg/mL (≈ 86.7 µM); in the data set on E. faecalis 161651, 8 µg/mL (≈ 21.7 µM); with E. faecalis 29212, 8 µg/mL (≈ 21.7 µM). Moreover, the MIC with S. epidermidis MRSE 01 was 8 µg/mL (≈ 21.7 µM). Further, the CC50 stood at 2.11 µg/mL (≈ 5.71 µM) in the data set “Mammalian Cell Toxicity [1]” and 2.18 µg/mL (≈ 5.9 µM) in the data set “Mammalian Cell Toxicity [3]”. Further, the half-inhibitory concentration (IC50) in [2] amounted to 19.9 µM. Moreover, in data set [4], the spectrum of activity entry is “broad spectrum for Gm (+) organisms”.
